{"source": "patent US20200230205A1", "about": "“COMPOSITIONS AND METHODS FOR TREATING MYELIN DISORDERS” (CASE WESTERN RESERVE UNIVERSITY, priority 2017, published 2020)", "tested_on": "MMP-10", "test": "MMP-10 western blot of OPC conditioned media", "type": "cell-based, mouse", "details": "OPC CM, 2.5 μM peptide, same as vehicle", "method": "To assess MMP-2 or 10 in OPC CM or lysates, OPCs were incubated on precoated PLL, aggrecan, and laminin as described above. OPCs were treated with vehicle, 2.5 μM ISP or SISP for 2 days at 37° C. CM was then harvested and concentrated using Milipore Ultracel YM-C centrifugal filter units at max speed (Eppendorf Centrifuge […]) for 30 minutes at 4° C. […] of concentrated CM was loaded into each lane. OPC lysates were assessed using western blot techniques described below with […] protein loaded from each group. Tissue samples or cerebellar slices or purified OPC cells were homogenized with RIPA lysis buffer and protein concentration was determined by Pierce BCA protein assay kit according to the manufacture instruction (Thermo Fisher). Then, equal amounts of protein were loaded to 15% SDS-PAGE gels, and electrophoretically transferred to PVDF membranes (Millipore). The membranes were blocked in 0.1% TPBS buffer with 5% non-fat milk for 1h at room temperature and probed with indicated primary antibodies overnight at 4° C. and followed by secondary antibody conjugated to horseradish peroxidase (HRP). […] Enhanced chemiluminescence was performed with a West Pico Kit (Thermo Fisher) and detected by FluorChem E system (ProteinSimple, USA). The density of bands was quantified using ImageJ software (NIH).", "data": [{"sequence": "GRKKRRQRRRCDMAEHMERLKANDSLKLSQEYESI [ISP]", "values": [{"measurement": "MMP-10 secretion, western blot", "value": "equally low amounts"}]}]}
